Data from publication PMC5374710, “Discovery of the first dual GSK3β inhibitor/Nrf2 inducer. A new multitarget therapeutic strategy for Alzheimer’s disease” (Scientific Reports, 2017).

Tests used:
TNFα = TNFα release induced by LPS in mixed glial cells (ELISA); format: cell-based, rat; details: LPS 1 μg/mL
Method: (§1) TNFα is considered one of the most important pro-inflammatory cytokines. […] The production of TNFα induced by LPS was reduced by 33% at 10 μM and by 50% at 30 μM. […] To further confirm the anti-inflammatory potential of compound 5c we measured the expression of thre NOX2 enzyme, since this isoform has been widely described as being specific tomicroglial cells. As depicted in Fig. 6F, LPS (1 μg/mL) stimulation of primary glial cultures during 24 h increased the expression of NOX2 by 65.3% (p < 0.01) compared to basal conditions.
(§2) Figure 6 Nitrites (A), TNFα (B), iNOS (C) and NOX activity (E) blockade (D) and NOX2 production (F) by 5c in primary glial cultures stimulated with LPS (1 μg/mL), HO-1 expression induced by this compound after 24 h. […] NOX activity was measured after 4 h co-treatment with LPS and compound 5c. […]
Tumor necrosis factor-alpha (TNFα) concentrations were measured by specific quantitative sandwich ELISA kits (Preprotech, R&D Systems-bioNova, Madrid, Spain) following manufacturer instructions. TNFα levels in supernatant samples, obtained after treatments with culture media (Basal), LPS or LPS co-incubated with increasing concentrations of compound 5c, were measured following manufacturer instructions. […] Light absorption was measured in a microplate reader (Labtech, Offenburg, Germany). […]

HO-1 = HO-1 expression in glial cultures (western blot); format: cell-based, rat; details: 30 μM, 24 h
Method: as §1, §2
(§3) After treatment, mixed glial cells were washed with cold PBS and lysed in 100 μl ice-cold lysis buffer (1% Nonident P-40, 10% glycerol, 137 mM NaCl, 20 mM Tris HCl pH 7.5, 1 μg/ml leupeptin, 1 mM phenylmethylsulfonyl fluoride, 20 mM NaF, 1 mM sodium pyrophosphate, and 1 mM Na3VO4). […] Peroxidase-conjugated secondary antibodies (1:10000) were used to detect proteins by enhanced chemiluminescence detected by Advance Western-blotting Detection Kit (GE Healthcare, Barcelona, Spain). […]

NOX = NOX activity assay in LPS-stimulated glial cultures (lucigenin); format: cell-based, rat; details: 10 to 60 μM, 4 h stimulation with LPS 1 μg/mL, p < 0.01
Method: as §1, §2
Cells were pre-incubated with increasing concentrations of the compound. […] Then, treatments were removed and NADPH oxidase activity was assessed by measuring O2^− production in the presence of the substrate, NADPH (100 μM) as lucigenin-enhanced chemiluminiscence (5 μM lucigenin). No enzymatic activity was detected in the absence of NADPH. Luminescence was recorded 29 times every 1.8 seconds for each well in a luminometer, and NADPH oxidase activity was expressed as relative light units (RLU)/min normalized to basal value. […]

NOX2 = NOX2 expression in LPS-stimulated primary glial cultures (western blot); format: cell-based, rat; details: 30 μM, LPS 1 μg/mL 24 h (LPS alone 65.3%)
Method: as §1, §2, §3

[1] = target: T1, Nrf2-Keap1 protein-protein interaction (Homo sapiens, UniProt Q14145); test: Fluorescence polarization assay of Nrf2-Keap1 interaction; format: binding; details: ligand concentration 10 µM; read-out: FP % Inhibition (± SEM)
T1 construct: a solution of the Keap1 Kelch domain (200 nM)
T1 sequence (Q14145 321-609 limits assumed): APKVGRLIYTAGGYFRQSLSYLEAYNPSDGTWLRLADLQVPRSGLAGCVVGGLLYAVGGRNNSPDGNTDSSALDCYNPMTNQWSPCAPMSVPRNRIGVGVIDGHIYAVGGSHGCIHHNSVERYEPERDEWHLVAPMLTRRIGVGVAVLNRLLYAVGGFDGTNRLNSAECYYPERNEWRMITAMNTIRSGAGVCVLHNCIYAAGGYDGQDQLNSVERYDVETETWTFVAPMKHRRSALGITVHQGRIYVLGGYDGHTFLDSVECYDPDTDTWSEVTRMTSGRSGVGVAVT
Method: Data are presented the means ± SEM of two experiments performed in triplicate.
The FP assay was carried out as previously described.^16,17 Inhibitors (10 µM) were plated onto untreated Corning® black 96 well plates containing a solution of the Keap1 Kelch domain (200 nM) and the fluorescent peptide FITC-β-DEETGEF-OH (1 nM) in Dulbecco’s Phosphate Buffered Saline (DPBS) at pH 7.4 (11% final DMSO concentration, 100 µL final volume). Following a 30 min incubation under slow agitation and away from light at room temperature, the plates were transferred to a PHERAstar microplate reader (BMG Labtech, Ortenberg, Germany) and the fluorescence polarisation was recorded. All measurements were recorded in triplicate.

inhibition at 10 µM [1] | SMILES | Reduction of TNFα production induced by LPS (TNFα; 10 μM) | Reduction of TNFα production induced by LPS (TNFα; 30 μM) | HO-1 expression increase in glial cultures (HO-1) | Reduction of NOX activity (NOX) | NOX2 expression increase compared to basal conditions in presence of LPS (NOX2)
< 0% | COc1cccc(C2C(C#N)=C(N)Oc3n[nH]c(C)c32)c1 (stereo not shown) [Compound 5c, 6-Amino-4-(3-methoxyphenyl)-3-methyl-2,4-dihydropyrano[2,3-c]pyrazole-5-carbonitrile] | 33% | 50% | 2.3 times | significantly reduce | 11.1%
< 0% | Cc1[nH]nc2c1C(c1ccc(Br)cc1)C(C#N)=C(N)O2 (stereo not shown) [Compound 5m, 6-Amino-4-(4-bromophenyl)-3-methyl-2,4-dihydropyrano[2,3-c]pyrazole-5-carbonitrile] |  |  |  |  | 
